Toxic doses and inconclusive results are not listed. Rule as the data show it: active = T/C of 150% or more; inactive = T/C below 125%.
System: L1210 leukemia ip in BDF1 mice, survival T/C
Experiment: NCI In Vivo Anticancer Drug Screen. Data for tumor model L1210 Leukemia (intraperitoneal) in B6D2F1 (BDF1) mice
Settings: endpoint: mean survival time, schedule: Q04DX003 (sc), vehicle: steriod suspending solution, higher = longer survival
Procedure, shortened: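 Transplanted-tumor mice were given test agent; controls received vehicle only. Survival readings from the two groups were divided (treated over control).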

Measured: T/C

CC(=O)OC1CCC2(C)C(=CCC3C2CCC2(C)C3CC(SCC(=O)O)C2SCC(=O)O)C1 (stereo not drawn)
inactive: dose: 100.0 mg/kg/injection 98 % of control | dose: 200.0 mg/kg/injection 106 % of control | dose: 400.0 mg/kg/injection 106 % of control

Reference: PubChem BioAssay AID248 (DTP/NCI, 2004)
